The target of one test is prolyl hydroxylase (Homo sapiens, UniProt P13674). The experiment in a line: prolyl hydroxylase enzyme assay with preincubation (suicide inhibition). The note with it: concentration which inactivates 50% of the enzyme after one hour; preincubation with iron(II) ions, α-ketoglutarate and ascorbate. In kind it is biochemical. On the procedure: The inhibitory action can be determined in an enzyme assay analogous to the method of B. Peterkofsky and R. DiBlasio Anal. Biochem. 66, 279-286 (1975). This entails underhydroxylated collagen being enzymatically hydroxylated with prolyl hydroxylase in the presence of iron(II) ions, α-ketoglutarate and ascorbate.
The suicidal nature of the inhibition is established by preincubation of the enzyme in the presence of iron(II) ions, α-ketoglutarate and ascorbate with the inhibitors for various times, and then determination of the remaining activity of the enzyme in the presence of a peptide substrate. It is possible to use for determination of the activity both the method of Peterkofsky and DiBlasio described above and other methods such as described by K. I. Kivirikko and R. Myllyla, Meth. Enzym. 82, 245-304 (1982). The concentration which inactivates 50% of the enzyme after one hour is stated.

Another test concerns calvarial culture. The experiment in a line: inhibitory action in calvarial culture (hydroxyproline/proline quotient). In kind it is cell-based. The note with it: concentration giving 50% decrease in the hydroxyproline/proline quotient on feeding with 14C-proline. From the text:
The inhibitory action can also be determined in cell or tissue culture. It is possible to use for this purpose fibroblasts or other collagen-producing cells, or calvariae or other collagen-producing organs. Table 2 is a compilation of the inhibitory action of some substances according to the invention in calvarial culture. The concentration which results in a 50% decrease in the hydroxyproline/proline quotient on feeding with ^14 C-proline is stated.

Test [1] deals with C1q biosynthesis by macrophages. The note with it: W. Muller et al., FEBS Lett. 90, 218f (1978); cited from earlier work.

pIC50: −log10 of the molar value. Where “and” joins values, the source holds several entries; their conditions need not be identical. Equal values may be shown once. Bounds are passed on as bounds.

prolyl hydroxylase, sequence (P13674 18-534): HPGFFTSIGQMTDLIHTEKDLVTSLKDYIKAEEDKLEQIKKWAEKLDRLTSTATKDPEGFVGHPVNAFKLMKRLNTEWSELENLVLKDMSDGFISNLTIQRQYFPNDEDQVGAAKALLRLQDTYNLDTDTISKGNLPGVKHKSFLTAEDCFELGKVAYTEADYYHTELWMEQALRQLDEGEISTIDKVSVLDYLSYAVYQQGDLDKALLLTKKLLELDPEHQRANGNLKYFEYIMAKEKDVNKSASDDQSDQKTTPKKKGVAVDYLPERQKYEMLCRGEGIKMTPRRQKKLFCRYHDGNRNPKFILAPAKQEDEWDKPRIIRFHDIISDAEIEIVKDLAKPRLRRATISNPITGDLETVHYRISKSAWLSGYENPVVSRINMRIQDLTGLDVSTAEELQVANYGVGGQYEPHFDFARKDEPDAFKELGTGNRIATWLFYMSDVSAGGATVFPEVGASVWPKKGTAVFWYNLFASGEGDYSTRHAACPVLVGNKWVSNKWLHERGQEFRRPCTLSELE
prolyl hydroxylase, sequence (P07237 18-508 partner): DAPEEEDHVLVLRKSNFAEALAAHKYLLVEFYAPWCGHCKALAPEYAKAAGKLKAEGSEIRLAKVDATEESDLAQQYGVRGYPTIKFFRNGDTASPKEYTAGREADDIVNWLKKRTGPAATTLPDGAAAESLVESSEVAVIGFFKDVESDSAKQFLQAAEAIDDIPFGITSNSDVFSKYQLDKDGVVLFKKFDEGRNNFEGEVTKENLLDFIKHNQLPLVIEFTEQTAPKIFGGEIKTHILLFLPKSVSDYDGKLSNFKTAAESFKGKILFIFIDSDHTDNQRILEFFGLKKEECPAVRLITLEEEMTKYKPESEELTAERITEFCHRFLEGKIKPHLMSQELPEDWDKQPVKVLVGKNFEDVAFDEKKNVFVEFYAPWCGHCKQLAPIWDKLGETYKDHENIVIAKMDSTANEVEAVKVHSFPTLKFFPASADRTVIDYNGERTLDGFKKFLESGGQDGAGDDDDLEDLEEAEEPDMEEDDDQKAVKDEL

Consider `CC(=O)N1CCCC1C(=O)N1OCCC1C(=O)NCC(=O)NCc1ccccc1` (centres unmarked) [Ac--Pro--Opr--Gly--NH--CH2 --C6 H5], for which the “ID50 [60 min; μmol/l]” value at prolyl hydroxylase was 6000.0 µmol/L.
Consider “Z-Phe(r)-Opr-Gly-OBzl [Z--Phe(r)--Opr--Gly--OBzl]”, for which the “ID50 [60 min; μmol/l]” value on prolyl hydroxylase was 1.1 µmol/L.
The term pIC50 denotes −log10 of the IC50, conventionally taken in molar units. A higher pIC50 goes with a low IC50. With `CC(C)C(NC(=O)OCc1ccccc1)C(=O)N1OCCC1C(=O)NCC(=O)OCc1ccccc1` (centres unmarked) [Z--Val--Opr--Gly--OBzl], the “ID50 [60 min; μmol/l]” value at prolyl hydroxylase was found to be 40.0 µmol/L. The compound further had a pIC50 in the test on calvarial culture of 3.42.
In the case of “HPheOprNHCH2 COC6 H4 -4-Cl [H--Phe--Opr--NH--CH2 --CO--C6 H4-4-Cl]”, the “ID50 [60 min; μmol/l]” value at prolyl hydroxylase turned out to be 15.5 µmol/L.
In the case of `c1ccc(-c2ccccn2)nc1` [α,α-dipyridyl], the “effect on C1q biosynthesis by macrophages” value in test [1] was “inhibition of C1q biosynthesis by macrophages”.
As to `CC(=O)N1CCCC1C(=O)N1OCCC1C(=O)NCC(=O)OC(C)(C)C` (centres unmarked) [Ac--Pro--Opr--Gly--OtBu], the “ID50 [60 min; μmol/l]” value on prolyl hydroxylase was determined as 8000.0 µmol/L. Besides, the pIC50 in the test on calvarial culture was 2.12.
Turning to `O=C(CNC(=O)C1CCON1Cc1ccccc1)OCc1ccccc1` (stereo not drawn) [C6 H5 --CH2 --Opr--Gly--OBzl, C6 H5 --CH2 -Opr-Gly-OBzl], on prolyl hydroxylase, the “ID50 [60 min; μmol/l]” value came to 610.0 µmol/L.
As for `CC(NC(=O)OCc1ccccc1)C(=O)N1OCCC1C(=O)NCC(=O)OCc1ccccc1` (centres unmarked) [Z--(D)--Ala--Opr--Gly--OBzl, Z--(D)-- Ala--Opr--Gly--OBzl], the “ID50 [60 min; μmol/l]” value at prolyl hydroxylase was over 10000.0 µmol/L.
Consider `O=C(CNC(=O)C1CCON1C(=O)C1Cc2ccccc2CN1C(=O)OCc1ccccc1)OCc1ccccc1` (centres unmarked) [Z--Tic--Opr--Gly--OBzl], for which the “ID50 [60 min; μmol/l]” value on prolyl hydroxylase came out at 1.5 µmol/L.
Regarding `O=C(CNC(=O)C1CCON1C(=O)C(Cc1ccccc1)NC(=O)OCc1ccccc1)OCc1ccc(F)cc1` (centres unmarked) [Z--Phe--Opr--Gly--O--CH2 --C6 H4-4-F], the “ID50 [60 min; μmol/l]” value at prolyl hydroxylase is 0.8 µmol/L.
For the compound `O=C(O)CCC(NC(=O)OCc1ccccc1)C(=O)N1OCCC1C(=O)NCC(=O)OCc1ccccc1` (centres unmarked) [Z--Glu--Opr--Gly--OBzl], on prolyl hydroxylase, the “ID50 [60 min; μmol/l]” value came to 5000.0 µmol/L.
In the case of `O=C(CNC(=O)C1CCON1C(=O)C(Cc1ccc(O)cc1)NC(=O)OCc1ccccc1)OCc1ccccc1` (centres unmarked) [Z--Tyr--Opr--Gly--OBzl], the “ID50 [60 min; μmol/l]” value at prolyl hydroxylase is 2.4 µmol/L.
Turning to `O=C(CNC(=O)C1CCON1C(=O)Cc1ccccc1)OCc1ccccc1` (centres unmarked) [C6 H5 --CH2 --CO--Opr--Gly--OBzl], the “ID50 [60 min; μmol/l]” value at prolyl hydroxylase is 1000.0 µmol/L. The pIC50 in the test on calvarial culture was 2.70.
As for `O=C(CNC(=O)C1CCON1C(=O)Cc1ccccc1)OCc1ccc([N+](=O)[O-])cc1` (centres unmarked) [4-Nitrobenzyl ester of N-phenylacetyl-Opr-Gly], on prolyl hydroxylase, the “ID50 [60 min; μmol/l]” value turned out to be 540.0 µmol/L. In the test with calvarial culture, the pIC50 is 2.60.
In the test with calvarial culture, `CC(C)(C)OC(=O)CNC(=O)C1CCON1C(=O)C1CCCN1C(=O)OCc1ccccc1` (centres unmarked) [Z--Pro--Opr--Gly--OtBu] had a pIC50 of 3.26.
Turning to `O=C(CNC(=O)C1CCON1C(=O)CCc1ccccc1)OCc1ccccc1` (centres unmarked) [C6 H5 --CH2 --CH2 --CO--Opr--Gly--OBzl, N-3-Phenylpropionyl-Opr--Gly--OBzl], at prolyl hydroxylase, the “ID50 [60 min; μmol/l]” value worked out at 2000.0 µmol/L.
Still for that read-out and setting: to `CS(=O)(=O)CCOC(=O)NC(CCC(=O)OCc1ccccc1)C(=O)N1OCCC1C(=O)NCC(=O)OCc1ccccc1` (centres unmarked) [Msc--Glu(OBzl)--Opr--Gly--OBzl] belongs 30.0 µmol/L; to `O=C(CCc1ccccc1)CNC(=O)C1CCON1C(=O)C(Cc1ccccc1)NC(=O)OCc1ccccc1` (stereo not drawn) [Z-Phe-Opr-NH--CH2 --CO--CH2 --CH2 --C6 H5], 3.4 µmol/L; to `O=C(CNC(=O)C1CCON1C(=O)C(Cc1ccccc1)NC(=O)OCc1ccccc1)OCCc1ccccc1` (centres unmarked) [Z--Phe--Opr--Gly--O--CH2 --CH2 --C6 H5], 0.9 µmol/L.
With `CC(NC(=O)OCc1ccccc1)C(=O)N1OCCC1C(=O)NCC(=O)O` (centres unmarked) [Z--Ala--Opr--Gly--OH], the “ID50 [60 min; μmol/l]” value on prolyl hydroxylase came out at 330.0 µmol/L.
On the same count and under the same terms, to `CN(CC(=O)OCc1ccccc1)C(=O)C1CCON1C(=O)C(Cc1ccccc1)NC(=O)OCc1ccccc1` (centres unmarked) [Z--Phe--Opr--Sar-- OBzl, Z--Phe--Opr--Sar--OBzl] belongs over 10000.0 µmol/L; to `O=C(CNC(=O)C1CCON1C(=O)C(Cc1ccccc1)NC(=O)OCc1ccccc1)OCc1ccccc1` (stereo not drawn) [Z--Phe--Opr--Gly--OBzl, Z-Phe-Opr-Gly-OBzl], 0.8 µmol/L; to `CC(NC(=O)OCc1ccccc1)C(=O)N1OCCC1C(=O)NCC(=O)OC(C)(C)C` (centres unmarked) [Z--Ala--Opr--Gly--OtBu, Z--Ala--Opr--Gly--OtBU], 40.0 µmol/L.
On to `C[C@H](NC(=O)OCc1ccccc1)C(=O)N1OCCC1C(=O)NCC(=O)OCc1ccccc1` (some centres unmarked) [Z--Ala--Opr--Gly--OBzl], for which, on prolyl hydroxylase, the “ID50 [60 min; μmol/l]” value turned out to be 3.0 µmol/L. For the same compound, in the test with calvarial culture, the pIC50 is 2.78 and 2.60.
For `O=C(CNC(=O)C1CCON1C(=O)C(CCCCN1C(=O)c2ccccc2C1=O)NC(=O)OCc1ccccc1)OCc1ccccc1` (centres unmarked) [Z--Lys(Pht)--Opr--Gly--OBzl], the “ID50 [60 min; μmol/l]” value at prolyl hydroxylase was determined as 11.0 µmol/L.
Still for that read-out and setting: to `CC(=O)N1CCCC1C(=O)N1OCCC1C(=O)NCC(=O)OCc1ccccc1` (centres unmarked) [Ac--Pro--Opr--Gly--OBzl] belongs 60.0 µmol/L.
Still for that read-out and setting: as for `CC(=O)N1CCCC1C(=O)N1OCCC1C(=O)NCC(=O)NCCc1ccccc1` (centres unmarked) [Ac--Pro--Opr--Gly--NH--CH2 --CH2 --C6 H5], the figure is 4900.0 µmol/L; as for `O=C(NC(Cc1ccccc1)C(=O)N1OCCC1C(=O)NCC(=O)c1ccccc1)OCc1ccccc1` (centres unmarked) [Z--Phe--Opr--NH--CH2 --CO--C6 H5, ZPheOprNHCH2 COC6 H5], 2.4 µmol/L; as for `CCN(CC)C(=O)CNC(=O)C1CCON1C(=O)C1CCCN1C(C)=O` (centres unmarked) [Ac--Pro--Opr--Gly--N(C2 H5)2], 16900.0 µmol/L.
In the case of `N#Cc1ccc(C(=O)CNC(=O)C2CCON2C(=O)C(Cc2ccccc2)NC(=O)OCc2ccccc2)cc1` (centres unmarked) [Z--Phe--Opr--NH--CH2 --CO--C6 H4-4-CN, ZPheOprNHCH2 COC6 H4-4-CN], the “ID50 [60 min; μmol/l]” value on prolyl hydroxylase was 1.1 µmol/L.

These data come from patent US5422342A, “2,3-disubstituted isoxazolidines, agents containing them and their use” (Hoechst Aktiengesellschaft, priority 1986, dated 1995).
